Among the data in patent US20260297070A1, “CYCLIC [COMPOUND LEFT OUT] WRN INHIBITORS” (Nimbus Wadjet, Inc., priority 2023, published 2026) are IC50 values, retold here.

pIC50: −log10 of the molar value.

The target in this assay is T1, human Werner helicase (WRN-BV08, Uniprot Q14191, amino acids 517-1235 with L1074F point mutation) (Homo sapiens, UniProt Q14191, L1074F).
T1 construct: Uniprot Q14191, amino acids 517-1235 with L1074F point mutation; TEV-cleavable 8×His (C, cleaved yes); made in house; host or cells: Sf9 insect cells (baculovirus)
T1 sequence (Q14191 with tags, fused parts or gaps L1074F limits assumed): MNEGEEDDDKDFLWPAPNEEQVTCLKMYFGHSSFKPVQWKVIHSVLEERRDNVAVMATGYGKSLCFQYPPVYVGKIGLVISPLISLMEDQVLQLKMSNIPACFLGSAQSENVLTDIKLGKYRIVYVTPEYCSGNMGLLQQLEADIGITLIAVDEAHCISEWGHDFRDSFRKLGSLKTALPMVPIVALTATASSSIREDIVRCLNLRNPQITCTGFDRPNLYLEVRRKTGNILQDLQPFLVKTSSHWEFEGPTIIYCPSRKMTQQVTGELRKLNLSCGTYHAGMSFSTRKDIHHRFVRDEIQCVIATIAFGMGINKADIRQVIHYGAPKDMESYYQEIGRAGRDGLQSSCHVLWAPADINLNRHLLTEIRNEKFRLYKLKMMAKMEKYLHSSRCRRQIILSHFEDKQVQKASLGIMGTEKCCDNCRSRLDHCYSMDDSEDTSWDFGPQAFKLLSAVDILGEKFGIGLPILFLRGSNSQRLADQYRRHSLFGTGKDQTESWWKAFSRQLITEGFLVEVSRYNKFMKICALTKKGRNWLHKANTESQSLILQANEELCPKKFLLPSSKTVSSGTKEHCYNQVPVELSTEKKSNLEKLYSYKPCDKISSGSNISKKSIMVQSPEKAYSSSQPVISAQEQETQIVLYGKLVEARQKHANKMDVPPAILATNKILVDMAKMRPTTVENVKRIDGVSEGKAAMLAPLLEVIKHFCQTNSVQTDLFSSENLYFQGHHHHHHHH
Put plainly: WRN (BV08) ADP-Glo Assay. In kind it is biochemical. The settings on record: 0.15 nM WRN, 5 μM ATP, 0.1 nM DNA duplex, 15 min preincubation, 60 min at 25° C., pH 7.5, 1% DMSO; read-out: ADP-Glo_hWRN_IC50. Put shortly:
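Helicase ATPase activity is measured at 25 °C over 60 min using 0.15 nM enzyme, 5 μM ATP and 0.1 nM DNA duplex, final DMSO 1%. ADP production is detected by luminescence, with IC50 derived by curve fitting.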
In general terms: ADP-Glo turns the ADP formed in a reaction into a luminescent signal.
As to `Cc1nc2cc(CC(=O)N(Cc3ccncc3)C3C=CS(=O)(=O)C3)ccc2o1` (stereo not shown) [I-610, N-(1,1-dioxo-2,3-dihydro-1lambda6-thiophen-3-yl)-2-(2-methyl-1,3-benzoxazol-5-yl)-N-[(pyridin-4-yl)methyl]acetamide], the pIC50 was less than 4.30.

For the compound `O=C(C(c1ccc(-c2ccc(F)cc2)cc1)N1CCCC1=O)N(Cc1ccncc1)C1C=CS(=O)(=O)C1` (stereo not shown) [I-328, N-(1,1-dioxo-2,3-dihydro-1lambda6-thiophen-3-yl)-2-{4′-fluoro-[1,1′-biphenyl]-4-yl}-2-(2-oxopyrrolidin-1-yl)-N-[(pyridin-4-yl)methyl]acetamide], the pIC50 is 4.30 to 5.00.

Take `O=C(Cc1cccc2ccccc12)N(Cc1ccncc1)C1C=CS(=O)(=O)C1` (stereo not shown) [I-431, N-(1,1-dioxo-2,3-dihydro-1lambda6-thiophen-3-yl)-2-(naphthalen-1-yl)-N-[(pyridin-4-yl)methyl]acetamide]: the pIC50 was less than 4.30.

`CN(C)C(=O)C(C(=O)N(Cc1ccnc(C(C)(C)O)c1)C1C=CS(=O)(=O)C1)c1ccc(-c2ccc(F)cc2)cc1` (single isomer, unassigned) [I-8, N1-(-1,1-dioxido-2,3-dihydrothiophen-3-yl)-2-(4′-fluoro-[1,1′-biphenyl]-4-yl)-N1-((2-(2-hydroxypropan-2-yl)pyridin-4-yl)methyl)-N3,N3-dimethylmalonamide]: the pIC50 was greater than 6.30.

With `COc1cc(CN(C(=O)C(c2ccc(-c3ccc(F)c(F)c3)cc2F)n2cccn2)[C@@H]2C=CS(=O)(=O)C2)ccn1` (single isomer, unassigned) [I-671, (2R*)-N-[(3R)-1,1-dioxo-2,3-dihydro-1lambda6-thiophen-3-yl]-N-[(2-methoxypyridin-4-yl)methyl]-2-(1H-pyrazol-1-yl)-2-{3,3′,4′-trifluoro-[1,1′-biphenyl]-4-yl}acetamide], the pIC50 is greater than 6.30.

For the compound `COc1cc(CN(C(=O)Cc2ccc(C(F)(F)F)cc2)C2C=CS(=O)(=O)C2)ccn1` (single isomer, unassigned) [I-382], the pIC50 is less than 4.30.

In the case of `COCCc1cccn1-c1ccc(CC(=O)N(Cc2ccccc2)C2C=CS(=O)(=O)C2)cc1` (stereo not shown) [I-384, N-benzyl-N-(1,1-dioxo-2,3-dihydro-1lambda6-thiophen-3-yl)-2-{4-[2-(2-methoxyethyl)-1H-pyrrol-1-yl]phenyl}acetamide], the pIC50 is less than 4.30.

On to `CN(C)C(=O)C(C(=O)N(Cc1ccnc(C(C)(C)O)c1)C1C=CS(=O)(=O)C1)c1ccc(-c2ccc(F)cc2)cc1F` (single isomer, unassigned) [I-258, (2R**)-2-{3,4′-difluoro-[1,1′-biphenyl]-4-yl}-N-[(3R*)-1,1-dioxo-2,3-dihydro-1lambda6-thiophen-3-yl]-N-{[2-(2-hydroxypropan-2-yl)pyridin-4-yl]methyl}-N′,N′-dimethylpropanediamide], for which the pIC50 is 5.00 to 5.30.

`CC(C)(O)c1cc(CN(C(=O)Cn2cc(-c3ccc(F)cc3)cn2)C2C=CS(=O)(=O)C2)ccn1` (stereo not shown) [I-42, N-(1,1-dioxo-2,3-dihydro-1lambda6-thiophen-3-yl)-2-[4-(4-fluorophenyl)-1H-pyrazol-1-yl]-N-{[2-(2-hydroxypropan-2-yl)pyridin-4-yl]methyl}acetamide]: the pIC50 was greater than 6.30.

Regarding `O=C(Cc1ncc(-c2ccc(F)c(F)c2)cc1F)N(Cc1ccnc(OC(F)F)c1)C1C=CS(=O)(=O)C1` (stereo not shown) [I-698, N-{[2-(difluoromethoxy)pyridin-4-yl]methyl}-2-[5-(3,4-difluorophenyl)-3-fluoropyridin-2-yl]-N-(1,1-dioxo-2,3-dihydro-1lambda6-thiophen-3-yl)acetamide], the pIC50 is 5.30 to 6.30.

Turning to `O=C(Cc1ccc(S(F)(F)(F)(F)F)cc1)N(Cc1nc(C2CC2)cs1)C1C=CS(=O)(=O)C1` (single isomer, unassigned) [I-4], the pIC50 was greater than 6.30.

Consider `COCc1cc(-c2ccc(F)cc2)ccc1CC(=O)N(Cc1ccncc1)C1C=CS(=O)(=O)C1` (stereo not shown) [I-376, N-(1,1-dioxo-2,3-dihydro-1lambda6-thiophen-3-yl)-2-[4′-fluoro-3-(methoxymethyl)-[1,1′-biphenyl]-4-yl]-N-[(pyridin-4-yl)methyl]acetamide], for which the pIC50 is less than 4.30.

As to `O=C(Cc1ccc(-n2cccc2)cc1)N(Cc1cccc(O)c1)C1C=CS(=O)(=O)C1` (stereo not shown) [I-292, N-(1,1-dioxo-2,3-dihydro-1lambda6-thiophen-3-yl)-N-[(3-hydroxyphenyl)methyl]-2-[4-(1H-pyrrol-1-yl)phenyl]acetamide], the pIC50 was 4.30 to 5.00.

In the case of `COc1cc(CN(C(=O)C(c2ccc(-c3ccc(F)c(F)c3)cc2F)n2ncnn2)[C@@H]2C=CS(=O)(=O)C2)ccn1` (stereo partly drawn) [I-731, N-[(3R)-1,1-dioxo-2,3-dihydro-1lambda6-thiophen-3-yl]-N-[(2-methoxypyridin-4-yl)methyl]-2-(2H-1,2,3,4-tetrazol-2-yl)-2-{3,3′,4′-trifluoro-[1,1′-biphenyl]-4-yl}acetamide], the pIC50 is less than 4.30.

For the compound `O=C(Cc1ccc(-n2cccc2)cc1)N(Cc1ccncc1)C1C=CS(=O)(=O)C1` (stereo not shown) [I-239, N-(1,1-dioxo-2,3-dihydro-1lambda6-thiophen-3-yl)-N-[(pyridin-4-yl)methyl]-2-[4-(1H-pyrrol-1-yl)phenyl]acetamide], the pIC50 was 5.00 to 5.30.

For `CC(C)(O)c1csc(CN(C(=O)Cc2ccc(-c3ccc(F)cc3)cc2F)C2C=CS(=O)(=O)C2)n1` (stereo not shown) [I-79, 2-(3,4′-difluoro-[1,1′-biphenyl]-4-yl)-N-(1,1-dioxido-2,3-dihydrothiophen-3-yl)-N-((4-(2-hydroxypropan-2-yl)thiazol-2-yl)methyl)acetamide], the pIC50 was greater than 6.30.

Turning to `O=C(Cc1ccc(-n2cccc2)cc1)N(Cc1ccccc1)C1C=C(Br)S(=O)(=O)C1` (stereo not shown) [I-269, 2-(4-(1H-pyrrol-1-yl)phenyl)-N-benzyl-N-(5-bromo-1,1-dioxido-2,3-dihydrothiophen-3-yl)acetamide], the pIC50 is 4.30 to 5.00.

Consider `COc1cc(CN(C(=O)C(C(=O)N(C)C)c2ccc(-c3ccc(F)cc3)cc2F)C2C=CS(=O)(=O)C2)ccn1` (single isomer, unassigned) [I-312, (2R**)-2-{3,4′-difluoro-[1,1′-biphenyl]-4-yl}-N-[(3R*)-1,1-dioxo-2,3-dihydro-1lambda6-thiophen-3-yl]-N-[(2-methoxypyridin-4-yl)methyl]-N′,N′-dimethylpropanediamide], for which the pIC50 is less than 4.30.

Regarding `COC(C(=O)N(Cc1ccccc1)C1C=CS(=O)(=O)C1)c1ccc(-n2cccc2)cc1` (stereo not shown) [I-337, N-benzyl-N-(1,1-dioxo-2,3-dihydro-1lambda6-thiophen-3-yl)-2-methoxy-2-[4-(1H-pyrrol-1-yl)phenyl]acetamide], the pIC50 was 4.30 to 5.00.

Take `O=C(Cn1cc(-c2cc(F)c(F)c(F)c2)cn1)N(Cc1ccnc(Oc2ccncc2)c1)C1C=CS(=O)(=O)C1` (stereo not shown) [I-772, N-(1,1-dioxo-2,3-dihydro-1lambda6-thiophen-3-yl)-N-{[2-(pyridin-4-yloxy)pyridin-4-yl]methyl}-2-[4-(3,4,5-trifluorophenyl)-1H-pyrazol-1-yl]acetamide]: the pIC50 is greater than 6.30.

As for `COc1cc(CN(C(=O)Cn2cc3cc(OC(F)(F)F)ccc3n2)[C@@H]2C=CS(=O)(=O)C2)ccn1` [I-720, N-[(3R)-1,1-dioxo-2,3-dihydro-1lambda6-thiophen-3-yl]-N-[(2-methoxypyridin-4-yl)methyl]-2-[5-(trifluoromethoxy)-2H-indazol-2-yl]acetamide], the pIC50 is 5.30 to 6.30.

As to `COc1ccc2c(CC(=O)N(Cc3ccncc3)C3C=CS(=O)(=O)C3)c[nH]c2c1` (stereo not shown) [I-541, N-(1,1-dioxo-2,3-dihydro-1lambda6-thiophen-3-yl)-2-(6-methoxy-1H-indol-3-yl)-N-[(pyridin-4-yl)methyl]acetamide], the pIC50 was less than 4.30.

As to `CC(C)(O)c1cc(CN(C(=O)Cc2ccc(C3(C(F)(F)F)CC3)cc2)C2C=CS(=O)(=O)C2)ccn1` (single isomer, unassigned) [I-663], the pIC50 was 5.30 to 6.30.

Regarding `O=C(Cn1cc(-c2ccc(F)c(F)c2)cn1)N(Cc1nc(C2(F)CC2)cs1)C1C=CS(=O)(=O)C1` (stereo not shown) [I-726, 2-[4-(3,4-difluorophenyl)-1H-pyrazol-1-yl]-N-(1,1-dioxo-2,3-dihydro-1lambda6-thiophen-3-yl)-N-{[4-(1-fluorocyclopropyl)-1,3-thiazol-2-yl]methyl}acetamide], the pIC50 is greater than 6.30.

Regarding `Cn1nc(-c2ccccc2)cc1CC(=O)N(Cc1ccncc1)C1C=CS(=O)(=O)C1` (stereo not shown) [I-609, N-(1,1-dioxo-2,3-dihydro-1lambda6-thiophen-3-yl)-2-(1-methyl-3-phenyl-1H-pyrazol-5-yl)-N-[(pyridin-4-yl)methyl]acetamide], the pIC50 is less than 4.30.

On to `COc1ccc(COc2cc(CC(=O)N(Cc3ccnc(OC)c3)C3C=CS(=O)(=O)C3)ccc2-c2ccc(F)cn2)cc1` (stereo not shown) [I-451, N-(1,1-dioxo-2,3-dihydro-1lambda6-thiophen-3-yl)-2-[4-(5-fluoropyridin-2-yl)-3-[(4-methoxyphenyl)methoxy]phenyl]-N-[(2-methoxypyridin-4-yl)methyl]acetamide], for which the pIC50 was less than 4.30.

For `Cn1c(CC(=O)N(Cc2ccncc2)C2C=CS(=O)(=O)C2)nnc1-c1ccccc1` (stereo not shown) [I-443, N-(1,1-dioxo-2,3-dihydro-1lambda6-thiophen-3-yl)-2-(4-methyl-5-phenyl-4H-1,2,4-triazol-3-yl)-N-[(pyridin-4-yl)methyl]acetamide], the pIC50 is less than 4.30.

Consider `COc1cc(CN(C(=O)Cc2ccc(-c3ccc(F)cc3)cc2)C2C=CS(=O)(=O)C2)on1` (stereo not shown) [I-247, N-(1,1-dioxo-2,3-dihydro-1lambda6-thiophen-3-yl)-2-{4′-fluoro-[1,1′-biphenyl]-4-yl}-N-[(3-methoxy-1,2-oxazol-5-yl)methyl]acetamide], for which the pIC50 is 5.00 to 5.30.
